Holding throughout (format): cell-based
Experiment [1] has as its target Neuronal acetylcholine receptor; alpha3/beta4 (Homo sapiens, UniProt P30926+P32297). The experiment can be described thus: Antagonist activity at human alpha3beta4 nAChR expressed in Xenopus oocytes assessed as inhibition of ACh-induced current by voltage clamp electrophysiology method.
Experiment [2] addresses Neuronal acetylcholine receptor; alpha3/alpha6/beta2/beta3 (Homo sapiens, UniProt P17787+P32297+Q05901+Q15825). The experiment can be described thus: Antagonist activity at human alpha6/alpha3beta2beta3 nAChR expressed in Xenopus oocytes assessed as inhibition of ACh-induced current by voltage clamp electrophysiology method.
The target in experiment [3] is Neuronal acetylcholine receptor; alpha3/beta2 (Homo sapiens, UniProt P17787+P32297). As to the kind of experiment: Antagonist activity at human alpha3beta2 nAChR expressed in Xenopus oocytes assessed as inhibition of ACh-induced current by voltage clamp electrophysiology method.
Neuronal acetylcholine receptor; alpha3/beta2, sequence (P17787 whole entry): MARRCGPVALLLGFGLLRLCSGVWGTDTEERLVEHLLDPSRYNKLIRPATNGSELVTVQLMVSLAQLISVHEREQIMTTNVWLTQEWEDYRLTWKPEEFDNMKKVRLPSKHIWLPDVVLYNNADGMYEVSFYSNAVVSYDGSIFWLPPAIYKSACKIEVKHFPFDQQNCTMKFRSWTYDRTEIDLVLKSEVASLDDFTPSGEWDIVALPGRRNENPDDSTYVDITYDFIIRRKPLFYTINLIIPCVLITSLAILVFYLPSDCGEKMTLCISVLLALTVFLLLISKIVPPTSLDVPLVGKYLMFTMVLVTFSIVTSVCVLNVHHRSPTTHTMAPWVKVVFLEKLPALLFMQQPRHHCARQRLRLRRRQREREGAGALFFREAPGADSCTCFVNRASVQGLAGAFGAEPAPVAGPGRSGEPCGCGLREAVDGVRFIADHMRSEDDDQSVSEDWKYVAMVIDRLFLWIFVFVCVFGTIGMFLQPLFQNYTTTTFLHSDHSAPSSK
Neuronal acetylcholine receptor; alpha3/beta2, sequence (P32297 whole entry): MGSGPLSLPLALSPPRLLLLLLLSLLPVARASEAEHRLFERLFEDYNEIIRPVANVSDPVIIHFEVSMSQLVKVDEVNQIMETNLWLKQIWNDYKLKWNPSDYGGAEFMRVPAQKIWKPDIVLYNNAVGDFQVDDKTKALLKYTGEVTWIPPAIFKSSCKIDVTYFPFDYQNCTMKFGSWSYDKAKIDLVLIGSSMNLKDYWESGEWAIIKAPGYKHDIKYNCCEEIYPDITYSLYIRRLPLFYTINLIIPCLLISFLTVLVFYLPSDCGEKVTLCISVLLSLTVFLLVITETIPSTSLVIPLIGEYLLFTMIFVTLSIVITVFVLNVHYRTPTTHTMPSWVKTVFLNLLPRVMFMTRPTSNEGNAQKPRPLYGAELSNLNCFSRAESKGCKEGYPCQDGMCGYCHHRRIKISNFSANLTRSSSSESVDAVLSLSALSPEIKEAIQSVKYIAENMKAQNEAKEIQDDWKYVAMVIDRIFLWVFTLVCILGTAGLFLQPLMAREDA
The target of experiment [4] is Nicotinic acetylcholine receptor alpha6/alpha3/beta4 (Homo sapiens, UniProt P30926+P32297+Q15825). As to the kind of experiment: Antagonist activity at human alpha6alpha3beta4 nAChR expressed in Xenopus oocytes assessed as inhibition of ACh-induced current by voltage clamp electrophysiology method.
Nicotinic acetylcholine receptor alpha6/alpha3/beta4, sequence (P30926 whole entry): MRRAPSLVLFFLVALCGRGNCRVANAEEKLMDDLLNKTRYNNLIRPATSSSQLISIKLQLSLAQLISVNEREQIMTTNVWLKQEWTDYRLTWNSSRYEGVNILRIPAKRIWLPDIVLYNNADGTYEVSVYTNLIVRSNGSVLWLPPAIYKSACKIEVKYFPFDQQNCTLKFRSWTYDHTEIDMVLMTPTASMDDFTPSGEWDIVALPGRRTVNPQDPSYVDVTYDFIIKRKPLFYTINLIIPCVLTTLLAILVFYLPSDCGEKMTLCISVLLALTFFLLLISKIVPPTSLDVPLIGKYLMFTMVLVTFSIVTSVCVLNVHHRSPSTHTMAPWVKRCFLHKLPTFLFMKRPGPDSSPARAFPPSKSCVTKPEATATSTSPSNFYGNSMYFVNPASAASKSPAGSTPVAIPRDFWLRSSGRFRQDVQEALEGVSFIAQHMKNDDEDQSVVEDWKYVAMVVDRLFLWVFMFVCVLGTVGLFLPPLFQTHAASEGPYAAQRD
Nicotinic acetylcholine receptor alpha6/alpha3/beta4, sequence (P32297 whole entry): as the sequence (P32297 whole entry) above
Nicotinic acetylcholine receptor alpha6/alpha3/beta4, sequence (Q15825 whole entry): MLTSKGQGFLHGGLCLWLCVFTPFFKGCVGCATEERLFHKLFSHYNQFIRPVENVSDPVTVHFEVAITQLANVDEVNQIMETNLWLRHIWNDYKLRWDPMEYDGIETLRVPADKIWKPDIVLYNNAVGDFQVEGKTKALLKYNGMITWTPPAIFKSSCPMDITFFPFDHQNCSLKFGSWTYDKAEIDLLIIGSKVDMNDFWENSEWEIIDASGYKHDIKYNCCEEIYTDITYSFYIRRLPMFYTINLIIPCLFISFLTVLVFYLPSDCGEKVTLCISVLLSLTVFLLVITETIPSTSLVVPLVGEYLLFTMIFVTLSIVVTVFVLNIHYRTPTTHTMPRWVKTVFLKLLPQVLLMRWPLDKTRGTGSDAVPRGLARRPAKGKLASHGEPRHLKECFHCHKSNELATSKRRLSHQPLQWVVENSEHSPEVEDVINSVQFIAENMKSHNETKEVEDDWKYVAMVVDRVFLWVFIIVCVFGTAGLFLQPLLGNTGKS

Molecules are shown by their SMILES. Where a SMILES comes first, the peptide text is derived from it.

Neuronal acetylcholine receptor; alpha3/alpha6/beta2/beta3, sequence (P17787 whole entry): as the sequence (P17787 whole entry) above
Neuronal acetylcholine receptor; alpha3/alpha6/beta2/beta3, sequence (P32297 whole entry): as the sequence (P32297 whole entry) above
Neuronal acetylcholine receptor; alpha3/alpha6/beta2/beta3, sequence (Q15825 whole entry): as the sequence (Q15825 whole entry) above
Neuronal acetylcholine receptor; alpha3/alpha6/beta2/beta3, sequence (Q05901 whole entry): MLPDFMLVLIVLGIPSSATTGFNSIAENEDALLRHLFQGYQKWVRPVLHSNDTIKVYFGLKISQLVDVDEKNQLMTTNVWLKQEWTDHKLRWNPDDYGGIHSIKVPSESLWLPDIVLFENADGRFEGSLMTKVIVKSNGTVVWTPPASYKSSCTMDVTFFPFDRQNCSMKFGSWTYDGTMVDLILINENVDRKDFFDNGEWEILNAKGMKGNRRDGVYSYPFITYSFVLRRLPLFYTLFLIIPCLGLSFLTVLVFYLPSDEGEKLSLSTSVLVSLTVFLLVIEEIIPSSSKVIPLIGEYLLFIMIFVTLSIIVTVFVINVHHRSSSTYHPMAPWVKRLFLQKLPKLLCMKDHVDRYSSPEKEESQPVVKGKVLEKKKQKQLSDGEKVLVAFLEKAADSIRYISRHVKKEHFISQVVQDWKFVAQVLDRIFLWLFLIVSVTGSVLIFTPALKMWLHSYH
Neuronal acetylcholine receptor; alpha3/beta4, sequence (P30926 whole entry): as the sequence (P30926 whole entry) above
Neuronal acetylcholine receptor; alpha3/beta4, sequence (P32297 whole entry): as the sequence (P32297 whole entry) above

`CC[C@H](C)[C@@H]1NC(=O)[C@H](CCC(N)=O)NC(=O)[C@@H]2CCCN2C(=O)[C@H](CC(N)=O)NC(=O)[C@H](Cc2cnc[nH]2)NC(=O)[C@H](C(C)C)NC(=O)[C@H]([C@@H](C)O)NC(=O)[C@@H]2CSSC[C@H](NC(=O)[C@@H]3CCCN3C(=O)[C@H](CC(=O)O)NC(=O)[C@@H](N)CCCN=C(N)N)C(=O)N[C@@H](CSSC[C@@H](C(N)=O)NC1=O)C(=O)N[C@@H](CO)C(=O)N[C@@H](CC(N)=O)C(=O)N1CCC[C@H]1C(=O)N[C@@H](C(C)C)C(=O)N2` (HELM PEPTIDE1{R.D.P.C.C.S.N.P.V.C.T.V.H.N.P.Q.I.C.[am]}$PEPTIDE1,PEPTIDE1,4:R3-10:R3|PEPTIDE1,PEPTIDE1,5:R3-18:R3$$$V2.0): the IC50 – broadly, the concentration that gives 50% inhibition – in experiment [1] was 518 nM; in experiment [2] it was 0.95 nM; in experiment [3], 74.2 nM; in experiment [4] it was 30.5 nM.

The values are drawn from ChEMBL document CHEMBL3102714 (J Med Chem, 2013).
